Measurements: patent publication US5981558A, “DC107 derivatives” (Kyowa Hakko Kogyo Co., Ltd., priority 1996, dated 1999)

test system: HeLa S3 cells; test: HeLa S3 Cell Growth Inhibition Test; format: cell-based; conditions: Homo sapiens, HeLa S3, 72 h, HeLa S3; 72 hours incubation; Neutral Red; read-out: IC50, HeLa S3 cell growth inhibition
Protocol: In each well of a 96-well microtiter plate was placed 0.1 mL of HeLa S3 cells having a concentration of 8×10^3 cells/mL and prepared in an MEM culture medium containing 10% fetal bovine serum and 2 mM glutamine. After the cells were incubated overnight at 37° C. in a carbon dioxide incubator, a test compound suitably diluted with a medium was added to the wells in an amount of 0.05 mL for each well. The cells were incubated at 37° C. for 72 hours in a carbon dioxide incubator. After the culture supernatant was removed, 0.1 mL of a culture medium containing 0.02% Neutral Red was added to each well. The cells were then incubated at 37° C. for 1 hour in a carbon dioxide incubator to dye the cells. After the culture supernatant was removed, each residue was rinsed once with physiological saline and the pigment was extracted with 0.001 N hydrochloric acid/30% ethanol. The absorbance at 550 nm of each extract was measured with a microplate reader. The drug concentration required for the 50% inhibition of cell growth, which is referred to as IC50, was calculated by comparing the absorbance for untreated cells with those for cells treated with the drug in known concentrations.

SMILES | IC50 [nM]
CC(=O)OCc1oc(=O)oc1CSC(=O)C(C)(O)C12CC/C(C)=C/C(O)C(=O)/C=C/C=C\c3csc(n3)C(C)N(C(=O)C1)[S+]2[O-] (stereo not shown) [Compound 90] | 130
CC(=O)OCc1oc(=O)oc1CSC(=O)C(C)(O)C12CC/C(C)=C/C(OC3CCCCO3)C(=O)/C=C/C=C\c3csc(n3)C(C)N(C(=O)C1)[S+]2[O-] (stereo not shown) [Compound 91] | 51
CC(=O)NCC(=O)OCc1oc(=O)oc1CSC(=O)C(C)(O)C12CC/C(C)=C/C(O)C(=O)/C=C/C=C\c3csc(n3)C(C)N(C(=O)C1)[S+]2[O-] (stereo not shown) [Compound 97] | 120
COCCOCCOCC(=O)OCc1oc(=O)oc1CSC(=O)C(C)(O)C12CC/C(C)=C/C(OC3(OC)CCOCC3)C(=O)/C=C/C=C\c3csc(n3)C(C)N(C(=O)C1)[S+]2[O-] (stereo not shown) [Compound 103] | 26
COCCOCCOCCOCC(=O)OCc1oc(=O)oc1CSC(=O)C(C)(O)C12CC/C(C)=C/C(OC3CCCCO3)C(=O)/C=C/C=C\c3csc(n3)C(C)N(C(=O)C1)[S+]2[O-] (stereo not shown) [Compound 104] | 20
COC(=O)OCc1oc(=O)oc1CSC(=O)C(C)(O)C12CC/C(C)=C/C(OC3CCCCO3)C(=O)/C=C/C=C\c3csc(n3)C(C)N(C(=O)C1)[S+]2[O-] (stereo not shown) [Compound 106] | 11

same assay, conditions: Homo sapiens, HeLa S3, 72 h, read-out: IC50, HeLa S3 cell growth inhibition, HeLa S3; 72 hours incubation; Neutral Red

SMILES | IC50 [nM]
C/C1=C\C(OC2CCCCO2)C(=O)/C=C/C=C\c2csc(n2)C(C)N2C(=O)CC(C(C)(O)C(=O)SCc3oc(=O)oc3COC=O)(CC1)[S+]2[O-] (stereo not shown) [Compound 89] | 41
C/C1=C\C(OC2CCCCO2)C(=O)/C=C/C=C\c2csc(n2)C(C)N2C(=O)CC(C(C)(O)C(=O)SCc3oc(=O)oc3COC(=O)CN(C)C)(CC1)[S+]2[O-] (stereo not shown) [Compound 92] | 2.7
C/C1=C\C(OC2CCCCO2)C(=O)/C=C/C=C\c2csc(n2)C(C)N2C(=O)CC(C(C)(O)C(=O)SCc3oc(=O)oc3COC(=O)c3cccnc3)(CC1)[S+]2[O-] (stereo not shown) [Compound 93] | 9.2
C/C1=C\C(OC2CCCCO2)C(=O)/C=C/C=C\c2csc(n2)C(C)N2C(=O)CC(C(C)(O)C(=O)SCc3oc(=O)oc3COC(=O)CCC(=O)O)(CC1)[S+]2[O-] (stereo not shown) [Compound 95] | 27
C/C1=C\C(O)C(=O)/C=C/C=C\c2csc(n2)C(C)N2C(=O)CC(C(C)(O)C(=O)SCc3oc(=O)oc3COC(=O)C(C)(C)NC(=O)OC(C)(C)C)(CC1)[S+]2[O-] (stereo not shown) [Compound 96] | 29
C/C1=C\C(OC2CCCCO2)C(=O)/C=C/C=C\c2csc(n2)C(C)N2C(=O)CC(C(C)(O)C(=O)SCc3oc(=O)oc3COC(=O)Oc3ccc([N+](=O)[O-])cc3)(CC1)[S+]2[O-] (stereo not shown) [Compound 107] | 21
CCCCNC(=O)OCc1oc(=O)oc1CSC(=O)C(C)(O)C12CC/C(C)=C/C(OC3CCCCO3)C(=O)/C=C/C=C\c3csc(n3)C(C)N(C(=O)C1)[S+]2[O-] (stereo not shown) [Compound 108] | 13
C/C1=C\C(OC2CCCCO2)C(=O)/C=C/C=C\c2csc(n2)C(C)N2C(=O)CC(C(C)(O)C(=O)SCc3oc(=O)oc3COC(=O)N3CCN(C)CC3)(CC1)[S+]2[O-] (stereo not shown) [Compound 109] | 52
C/C1=C\C(OC2CCCCO2)C(=O)/C=C/C=C\c2csc(n2)C(C)N2C(=O)CC(C(C)(O)C(=O)SCc3oc(=O)oc3COC(=O)NCCO)(CC1)[S+]2[O-] (stereo not shown) [Compound 110] | 22
C=C(CSC(=O)C(C)(O)C12CC/C(C)=C/C(O)C(=O)/C=C/C=C\c3csc(n3)C(C)N(C(=O)C1)[S+]2[O-])C(=O)OC (stereo not shown) [Compound 111] | 20

same assay, conditions: Homo sapiens; HeLa S3; 72 hours incubation; Neutral Red; read-out: IC50, HeLa S3 cell growth inhibition

SMILES | IC50 [nM]
CC[Si](CC)(CC)OCc1oc(=O)oc1CSC(=O)C(C)(O)C12CC/C(C)=C/C(O)C(=O)/C=C/C=C\c3csc(n3)C(C)N(C(=O)C1)[S+]2[O-] (stereo not shown) [Compound 75] | 240
CC[Si](CC)(CC)OCc1oc(=O)oc1CSC(=O)C(C)(O)C12CC/C(C)=C/C(OC3CCCCO3)C(=O)/C=C/C=C\c3csc(n3)C(C)N(C(=O)C1)[S+]2[O-] (stereo not shown) [Compound 76] | 260
CC[Si](CC)(CC)OC[C@H]1OC(OCc2oc(=O)oc2CSC(=O)C(C)(O)C23CC/C(C)=C/C(O)C(=O)/C=C/C=C\c4csc(n4)C(C)N(C(=O)C2)[S+]3[O-])C[C@@H](O[Si](CC)(CC)CC)[C@@H]1O[Si](CC)(CC)CC (stereo partly shown) [Compound 81] | 210
